How the values were obtained:
[1] = system: 231MFP breast cancer cells; assay: 231MFP serum-free cell survival (Hoechst staining); format: cell-based; conditions: 48 h
HCC38 cells = assay: HCC38 serum-free cell survival; format: cell-based; conditions: 10 μM, 48 h
[2] = target: T1, PP2A complex with wild-type PPP2R1A, PPP2R2A and PPP2CA (Homo sapiens, UniProt P30153); assay: In vitro PP2A activity assay (phosphate release from phosphopeptide); format: biochemical; conditions: 30 min prior to assay
T1 construct: PPP2CA protein TP301334) TP301334; host or cells: HEK293T
T1 sequence (P30153 whole entry): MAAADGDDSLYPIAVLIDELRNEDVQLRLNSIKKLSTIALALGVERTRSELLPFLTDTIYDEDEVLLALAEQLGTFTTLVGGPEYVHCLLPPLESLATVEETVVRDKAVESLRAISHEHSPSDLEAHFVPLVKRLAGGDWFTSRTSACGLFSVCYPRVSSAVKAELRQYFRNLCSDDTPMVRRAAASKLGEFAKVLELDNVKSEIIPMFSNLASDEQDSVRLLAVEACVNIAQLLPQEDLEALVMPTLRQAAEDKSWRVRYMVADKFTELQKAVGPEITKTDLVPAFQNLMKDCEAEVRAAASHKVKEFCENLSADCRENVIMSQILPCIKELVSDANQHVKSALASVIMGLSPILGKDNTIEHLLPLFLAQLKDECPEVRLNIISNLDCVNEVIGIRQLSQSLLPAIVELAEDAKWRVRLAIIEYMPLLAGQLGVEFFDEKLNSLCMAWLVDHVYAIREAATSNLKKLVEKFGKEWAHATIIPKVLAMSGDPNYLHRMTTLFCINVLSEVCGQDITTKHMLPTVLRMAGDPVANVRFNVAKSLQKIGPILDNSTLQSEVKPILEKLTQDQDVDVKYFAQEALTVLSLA
T1 sequence (Q6P1F6 whole entry partner): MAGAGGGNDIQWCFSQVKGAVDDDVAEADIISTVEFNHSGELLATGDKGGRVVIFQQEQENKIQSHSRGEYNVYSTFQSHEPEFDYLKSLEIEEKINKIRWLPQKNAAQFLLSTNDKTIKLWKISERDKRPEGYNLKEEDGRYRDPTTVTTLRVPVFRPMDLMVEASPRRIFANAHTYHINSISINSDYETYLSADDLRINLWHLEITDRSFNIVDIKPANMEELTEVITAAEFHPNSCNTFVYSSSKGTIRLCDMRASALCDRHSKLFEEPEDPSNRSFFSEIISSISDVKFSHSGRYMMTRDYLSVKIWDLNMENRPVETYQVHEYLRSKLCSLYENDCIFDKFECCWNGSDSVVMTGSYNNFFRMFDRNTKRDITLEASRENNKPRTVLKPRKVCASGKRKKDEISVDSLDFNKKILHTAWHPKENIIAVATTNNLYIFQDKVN
T1 sequence (P67775 whole entry partner): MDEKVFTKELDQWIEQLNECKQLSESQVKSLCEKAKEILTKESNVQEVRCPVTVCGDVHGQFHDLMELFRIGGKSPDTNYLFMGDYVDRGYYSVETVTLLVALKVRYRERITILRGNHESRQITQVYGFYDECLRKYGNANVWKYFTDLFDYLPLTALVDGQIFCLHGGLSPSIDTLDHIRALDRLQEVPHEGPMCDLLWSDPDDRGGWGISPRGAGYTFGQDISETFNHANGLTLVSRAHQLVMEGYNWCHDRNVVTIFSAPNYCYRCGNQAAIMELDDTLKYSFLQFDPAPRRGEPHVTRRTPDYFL
Method: Wild-type mammalian expression plasmids with C-terminal FLAG tag were purchased from Origene (PPP2R1A: RC200056; PPP2R2A, MR207137). The PPP2R1A C337A mutant was generated with Agilent QuickChange Lightning site-directed mutagenesis kit according to manufacturer's instructions. […] Immediately prior to transfection, media was replaced with DMEM+5% FBS. Each plate was transfected with 20 μg of overexpression plasmid with 100 μg PEI (Sigma). After 48 hrs cells were collected in TBS, lysed by sonication, and batch bound with anti-DYKDDDDK (SEQ ID NO: 1) resin (GenScript) for 1 hr. Lysate and resin was loaded onto a gravity flow column and washed, followed by elution with 250 ng/uL 3×FLAG peptide (ApexBio A6001). Purity and concentration were verified by PAGE, UV/Spectroscopy, and BCA assay.
Activity was assayed by addition of 60 μM Thr phosphopeptide (KRpTIRR, Millipore, 12-219) at 37° C. for 25 min, and free phosphate was detected colorimetrically by malachite green kit (Cayman 10009325) per manufacturer's instructions.

MCF7 cells = assay: MCF7 serum-free cell survival; format: cell-based; conditions: 10 μM, 48 h
C328 on vimentin = target: T2, C328 on vimentin (Homo sapiens, UniProt P08670); assay: Competitive isoTOP-ABPP in 231MFP proteomes in vitro; format: binding; conditions: 10 μM, in vitro treatment of 231MFP proteomes
T2 construct: in vitro treatment of 231MFP breast cancer cell proteomes with withaferin A; endogenous in cells; host or cells: 231MFP breast cancer cells
T2 sequence (P08670 whole entry): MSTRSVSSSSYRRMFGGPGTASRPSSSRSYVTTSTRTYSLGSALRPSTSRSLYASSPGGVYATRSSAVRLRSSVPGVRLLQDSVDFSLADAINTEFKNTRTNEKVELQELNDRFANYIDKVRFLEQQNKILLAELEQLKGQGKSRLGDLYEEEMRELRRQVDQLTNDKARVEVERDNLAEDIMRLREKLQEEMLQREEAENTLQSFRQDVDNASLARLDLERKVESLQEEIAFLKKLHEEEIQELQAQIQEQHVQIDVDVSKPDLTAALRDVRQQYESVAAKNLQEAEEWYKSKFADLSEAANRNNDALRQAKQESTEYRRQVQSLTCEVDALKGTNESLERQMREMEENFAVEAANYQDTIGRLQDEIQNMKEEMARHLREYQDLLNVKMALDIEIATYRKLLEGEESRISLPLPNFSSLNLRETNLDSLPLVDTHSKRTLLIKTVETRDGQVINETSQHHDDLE
Method: IsoTOP-ABPP studies were performed using the methods described in “Nature 534(7608), 570-574 (2016)” by Backus K. M., et al. and “Nature 468(7325), 790-795 (2010)” by Weerapana E., et al. Proteome samples diluted in PBS were treated with Withaferin A or vehicle for 30 minutes at 37° C. Then, IAyne (iodoacetamide-alkyne) labeling was performed for 1 hour at room temperature. CuAAC was used by sequential addition of tris(2-carboxyethyl)phosphine (1 mM), tris[(1-benzyl-1H-1,2,3-triazol-4-yl)methyl]amine (34 μM), copper (II) sulfate (1 mM), and biotin-linker-azide where the linker was functionalized with a TEV protease recognition sequence along with an isotopically light or heavy valine for treatment of control or treated proteome, respectively. After click reactions, proteomes were precipitated by centrifugation at 6500×g, washed in ice-cold methanol, combined in a 1:1 control/treated ratio, washed again, then denatured and re-solubilized by heating in 1.2% SDS/PBS to 80° C. for 5 minutes. Insoluble components were precipitated by centrifugation at 6500×g and soluble proteome was diluted in 0.2% SDS/PBS (5 ml). Labeled proteins were bound to avidin-agarose beads (170 μl re-suspended beads/sample) while rotating overnight at 4° C. Bead-linked proteins were enriched by washing three times each in PBS and water, then re-suspended in urea/PBS (6 M), reduced in TCEP (1 mM), alkylated with iodoacetamide (18 mM), then washed and re-suspended in urea/PBS (2 M), and finally trypsinized overnight with 0.5 μg/μl sequencing grade trypsin. Tryptic peptides were eluted off. Beads were washed in PBS (3 times) and water (3 times), washed in TEV buffer solution (water, TEV buffer, 100 μM dithiothreitol), and re-suspended in buffer with Ac-TEV protease and then incubated overnight. Peptides were diluted in water, acidified with formic acid (1.2 M), and prepared for analysis.
Peptides from all proteomic experiments were pressure-loaded onto an Agilent 600 series RP-HPLC system equipped with a capillary tubing (250 mm) packed with Aqua C18 reverse-phase resin (4 cm). The system was previously equilibrated with a gradient (0% B to 100% B over 10 minutes, 100% B for 5 minutes, then 0% B for 5 minutes; buffer A: 95:5 water:acetonitrile, 0.1% formic acid; buffer B: 80:20 acetonitrile:water, 0.1% formic acid). The samples were then attached using a MicroTee PEEK 360 μm fitting to a laser pulled column (13 cm) packed with Aqua C18 reverse-phase resin (10 cm) and strong-cation exchange resin (3 cm) for isoTOP-ABPP studies. Samples were analyzed using an Q Exactive Plus mass spectrometer using a 5-step Multidimensional Protein Identification Technology (MudPIT) program. […]

[3] = system: MCF 10A non-transformed mammary epithelial cells; assay: MCF 10A cell proliferation (toxicity to non-transformed cells); format: cell-based; conditions: 48 h after treatment, Hoescht staining
231MFP tumor xenograft = 231MFP tumor xenograft growth; format: in vivo, immune-deficient SCID mice; conditions: 50 mg/kg ip, daily, initiated 15 days after tumor xenograft injection

## CC1=C(CO)C(=O)O[C@@H]([C@@H](C)[C@H]2CC[C@H]3[C@@H]4C[C@H]5O[C@]56[C@@H](O)C=CC(=O)[C@]6(C)[C@H]4CC[C@]23C)C1 [withaferin A, reference compound]
[1]; 10 μM
  serum-free cell survival: impairs
HCC38 cells
  serum-free cell survival: impairs
[2]; 10 μM
  PP2A activity, wild-type PPP2R1A: activated PP2A activity
MCF7 cells
  serum-free cell survival: impairs
C328 on vimentin
  light to heavy ratio, C328 on vimentin: 1.0

## O=C(CCl)Nc1ccc2c(c1)OCCO2 [DKM 2-90, 2-Chloro-N-(2,3-dihydrobenzo[β][1,4]dioxin-6-yl)acetamide]
[3]
  toxicity to MCF 10A cells (cell proliferation): less toxic than DKM 2-91

## O=C(CCl)N(Cc1ccccc1)c1ccc2c(c1)OCCO2 [JNS 1-40, N-benzyl-2-chloro-N-(2,3-dihydrobenzo[b][1,4]dioxin-6-yl)acetamide]
[1]; 100 μM
  serum-free cell survival: impaired
231MFP tumor xenograft
  231MFP tumor xenograft growth: significantly attenuated tumor growth
[2]; 100 μM
  PP2A activity, wild-type PPP2R1A: activated PP2A activity
